Laboratory results as given in patent US20260152480A1, “POLYCYCLIC COMPOUND AND USE THEREOF” (TYK MEDICINES , INC., priority 2022, published 2026).
Where two headings read alike, the source gives them in different places.

Key:
[1] = test system: Human pleural mesothelioma cells NCI-H226; test: Proliferation inhibition assay of human pleural mesothelioma cells NCI-H226 (CCK8); type: cell-based; conditions: 72 h, 3 days incubation
From the text: Experimental Example 1 Cell Anti-Proliferation Test
Proliferation Inhibition Assay of Human Pleural Mesothelioma Cells NCI-H226 by YAP-TEAD Inhibitor Compounds
Experimental materials and equipment: Human pleural mesothelioma cells NCI-H226 were purchased from Nanjing Cobioer Biosciences CO., LTD. RPMI-1640 medium (Bio-Channel), DMSO (dimethyl sulfoxide), CCK8 (WST-8) cell analysis kit (Beyotime), 0.25% EDTA-Tripsin (trypsin solution), 1×PBS (phosphate buffer, PH7.2), 96-well plate (Corning), fetal bovine serum (FBS), 10,000 U/mL penicillin-G/streptomycin, high-speed cryo-centrifuge (EPPENDORF 5810R), enzyme-linked immunoassay (Tecan Spark).
• A) Tumor cells were cultured in RPMI-1640 (containing 10% FBS and 100 U/mL penicillin-G/streptomycin) at 37° C., 5% CO^2 and saturated humidity until 80-90% density. • B) Removed the culture medium from 10 cm Petri dishes; • C) Rinsed the cells once with 10 ml 1×PBS; • D) Added 4 ml 0.25% EDTA-Tripsin into 37° C., 5% CO^2 incubator for trypsin digestion for 5 minutes, transferred to 15 ml centrifuge tube, centrifuged at 200 g for 5 minutes, discarded the supernatant to get cell precipitate; • E) Resuspend with 4 ml DMEM medium, count and adjust to 10,000 cells/ml. • F) Added cell suspension to 96-well plate with 100 μL per well volume and incubate overnight at 37° C., 5% CO^2 incubator.
• A) Preparation of gradient dilution solution of tested compounds: the test compounds were configured into 1 mM reservoir solution. Then 1.5 μl of the reservoir solution was dissolved in 1.5 ml of DMSO-free culture solution, and then a 3-fold serial gradient dilution was performed with 0.1% DMSO culture solution for a total of 9 concentrations, and the concentrations of the compounds after dilution were as follows: • 333.33 nM, 111.11 nM, 37.03 nM, 12.35 nM, 4.15 nM, 1.37 nM, 0.46 nM, 0.15 nM • B) After thorough mixing, 100 μL of culture compound solution was taken separately to replace the culture solution in the cell culture plate, with 4 replicate wells for each concentration; • C) The cells were transferred to the incubator and incubated for 3 days.
• A) Removed the cell culture plate and added 10 μl of CCK-8 (WST-8) solution per well in the biosafety cabinet. • B) Placed the cell culture plate back into the incubator and continued incubation for 3 hours. • C) Determined the absorbance value by selecting 450 nm on a TECAN enzyme-linked immunoassay detector.
The cell viability (% Cell Viability) was calculated using the following formula.
[formula] • A (dosing): absorbance of wells with cells, CCK8 solution and drug solution • A (blank): absorbance of wells with medium and CCK8 solution but no cells • A (0 dosing): absorbance of wells with cells, CCK8 solution and no drug solution • Cell viability: Cell proliferation viability or cytotoxicity viability IC50 values were obtained by curve fitting with GraphPad Prism 8 software.

YAP-TEAD = test: Nano luciferase method to detect YAP-TEAD inhibitor activity (293T cells transfected with pGL3B-8×GTiiC-nLuc-CMV-fLuc); type: cell-based; conditions: Homo sapiens, HEK-293T, transfected 293T cells, 48 hours incubation, read-out: Nano Luciferas detection (IC50)
From the text: Experimental Example 2 Nano Luciferase Method to Detect YAP-TEAD Inhibitor Activity
(1) Experimental materials and equipment: 293T cells were purchased from Nanjing Cobioer Biosciences CO., LTD. DMEM medium (high sugar, phenol red free, Bio-Channel), DMSO (dimethyl sulfoxide), Lipo6000™ transfection reagent (Beyotime), pGL3B-8×GTiiC-nLuc-CMV-fLuc plasmid, 0.25% EDTA Tripsin (trypsin solution), 1×PBS (phosphate buffer, PH7.2), 96-well white cell culture plate (PerkinElmer), Fetal Bovine Serum (FBS), 10,000 U/mL penicillin-G/streptomycin, High-speed cryo-centrifuge (EPPENDORF 5810R), 37° C. CO^2 incubator, Vi-Cell® cell counter, Envision microplate reader (PerkinElmer).
Resuscitated 293T cells were inoculated into 10 cm petri dishes and placed in a 5% CO^2 incubator at a constant temperature of 37° C. To ensure transfection efficiency, cells in the logarithmic phase (cell density of about 50%-70%) should be used.
One day before transfection, cells in logarithmic phase were digested with Trypsin-EDTA, the reaction was terminated by adding medium, and the cell suspension was made by blowing and mixing with a pipette.
The cell concentration was determined using Vi-cell and diluted to a suspension of 5*10^5 cells per milliliter. Once the cell suspension was prepared, it was gently mixed and 10 ml of liquid was added to a 10 cm petri dish. […] The cells were incubated in a 5% CO^2 incubator at 37° C. for 1 day.
Take two clean and sterile centrifuge tubes, added 750 μL of opti-MEM Medium without antibiotics and serum respectively, then added […] of plasmid (pGL3B-8×GTiiC-nLuc-CMV-fLuc) to one of the tubes and gently blown with a pipette for mixing; the other tube was added with Lipo6000 transfection reagent and gently blown with a pipette for mixing. After standing at room temperature for 5 minutes, the culture medium containing DNA was gently added to the culture medium containing Lipo6000 transfection reagent, mixed by gently inverting the centrifuge tube, and stood at room temperature for 5 minutes.
The above mixture was added evenly dropwise to a 10-cm petri dish and replaced with fresh complete medium after 6 h of incubation.
After 1 day of transfection, Trypsin EDTA was used to digest the cells, medium was added to terminate the reaction, and a cell suspension was made by blowing and mixing with a pipette.
Cell concentration was determined using Vi-cell, and diluted to a suspension of 20,000 cells per milliliter.
After the cell suspension was prepared, it was gently mixed and 100 μL was added to each well in a 96-well plate so that the density of cells to be measured was 2000 per well.
The inoculated cell culture plates were incubated in an incubator, and the compounds in concentration gradients were added after about 24 hours.
The 10 mM compound reservoir solution was diluted to 50 μM with culture medium, and 50 μM compound solution was added sequentially to the third column of the deep-well plate, and 216 μL of culture medium containing 0.5% DMSO to the fourth to eleventh columns.
Gradient dilution: 100 μL of solution was pipetted from the third column and added to the fourth column, after mixing; another 100 μL of solution was pipetted from the fourth column and added to the fifth column, and the operation was repeated until the eleventh column.
Using a multichannel pipette, 25 μL of compound solution was pipetted from the deep-well plate and added to the 96-well culture plate, and each compound was repeated four times on the 96-well plate. A concentration gradient with a maximum concentration of 10,000 nM, 1:3.16, was eventually formed on the 96-well plate.
The 96-well plate was incubated in a 5% CO^2 incubator at a constant temperature of 37° C. for 48 hours, then removed and equilibrated at room temperature for 10 minutes.
100 μL of detection reagent was added to each well and placed on a horizontal shaker at low speed for 10 minutes to fully lyse the cells. […]

[2] = reference compounds of WO2009081259A1

IC50 [1] [nM]	IC50 (YAP-TEAD) [nM]	IC50 [1, 2] [nM]	IC50 (YAP-TEAD; [2]) [nM]	Structure (SMILES)
1000 to 5000	1000 to 5000			CC#CC(=O)N1CCC(c2cccnc2Nc2ccc(C(F)(F)F)cc2)CC1 [Compound T50]
100 to 1000	100 to 1000			C=CC(=O)N1CCC(c2nc(C)c(C)nc2Nc2ccc(C(F)(F)F)cc2)CC1 [Compound T93]
1000 to 5000	100 to 1000			C/C=C/C(=O)N1CCC(c2cccnc2Nc2ccc(C(F)(F)F)cc2)CC1 [Compound T53]
		> 5000	> 5000	FC(F)(F)c1ccc(Nc2ncc(C(F)(F)F)cc2C2CCNCC2)cc1 [Reference compound 5, reference compound]
≤ 100	≤ 100			C=CC(=O)N1CCC(c2cccnc2Oc2ccc(C(F)(F)F)cc2)C(F)(F)C1 (stereo not drawn) [Compound T77]
100 to 1000	100 to 1000			C=CC(=O)N1CCC(c2cc(C#N)cnc2Oc2ccc(C(F)(F)F)cc2)CC1 [Compound T74]
1000 to 5000	100 to 1000			CC/C=C/C(=O)N1CCC(c2cccnc2Nc2ccc(C(F)(F)F)cc2)CC1 [Compound T52]
100 to 1000	≤ 100			C=CC(=O)N1CCC(c2cc(-c3cn(C)cn3)cnc2Nc2ccc(C(F)(F)F)cc2)CC1 [Compound T62]
1000 to 5000	100 to 1000			C=CC(=O)N1CCC(c2cc(-c3ccsc3)cnc2Nc2ccc(C(F)(F)F)cc2)CC1 [Compound T98]
1000 to 5000	100 to 1000			C=CC(=O)N1CCC(c2cc(-c3cccnc3)cnc2Nc2ccc(C(F)(F)F)cc2)CC1 [Compound T96]
≤ 100	≤ 100			C=CC(=O)N1CCC(c2cc(-c3ccccc3)cnc2Nc2ccc(C(F)(F)F)cc2)CC1 [Compound T56]
≤ 100	≤ 100			C=CC(=O)N1CCC(c2ccccc2Nc2ccc(C(F)(F)F)cc2)CC1 [Compound T64]
1000 to 5000	100 to 1000			C=CC(=O)N1CCC(c2cc(-c3ccncc3)cnc2Nc2ccc(C(F)(F)F)cc2)CC1 [Compound T97]
1000 to 5000	100 to 1000			C=CC(=O)N1CCC(c2cc(-c3cccs3)cnc2Nc2ccc(C(F)(F)F)cc2)CC1 [Compound T99]

The remaining lines, values behind:

Structure (SMILES)	IC50 [1] [nM]	IC50 (YAP-TEAD) [nM]	IC50 [1, 2] [nM]	IC50 (YAP-TEAD; [2]) [nM]
C=CC(=O)N1CCC(c2cc(F)cnc2Nc2ccc(C(F)(F)F)cc2)CC1 [Compound T25]	≤ 100	≤ 100		
C=CC(=O)N1CC(c2cccnc2Nc2ccc(C)cc2)C1 [Compound T15]	≤ 100	≤ 100		
C=CC(=O)N1CCC(c2cc(Cl)cnc2Nc2ccc(C(F)(F)F)cc2)CC1 [Compound T28]	≤ 100	≤ 100		
C=CC(=O)N1CCC(c2c(C)ccnc2Nc2ccc(C(F)(F)F)cc2)CC1 [Compound T23]	≤ 100	≤ 100		
C=CC(=O)N1CCC(c2cc(C(F)(F)F)cnc2Nc2ccc(C(F)(F)F)cc2)CC1 [Compound T47]	100 to 1000	100 to 1000		
C=CC(=O)N1CCC(c2cncnc2Nc2ccc(C(F)(F)F)cc2)CC1 [Compound T43]	100 to 1000	100 to 1000		
C=CC(=O)N1CCC(c2nccnc2Nc2ccc(C(F)(F)F)cc2)C1 (stereo not drawn) [Compound T18]	≤ 100	≤ 100		
C=CC(=O)N1CCC(c2ccc(C(F)(F)F)nc2Nc2ccc(C(F)(F)F)cc2)CC1 [Compound T45]	1000 to 5000	100 to 1000		
C#CC(=O)N1CCC(c2cccnc2Nc2ccc(C(F)(F)F)cc2)CC1 [Compound T49]	1000 to 5000	≤ 100		
C=CC(=O)N1CC=C(c2cccnc2Nc2ccc(S(F)(F)(F)(F)F)cc2)C1 [Compound T9]	≤ 100	≤ 100		
C=CC(=O)N1CCC(c2cccnc2Nc2ccc(C)cc2)C1 (stereo not drawn) [Compound T13]	≤ 100	≤ 100		
C=CC(=O)N1CC=C(c2cccnc2Nc2ccc(S(F)(F)(F)(F)F)cc2)CC1 [Compound T7]	≤ 100	≤ 100		
C=CC(=O)N1CCC(c2cccnc2Nc2ccc(S(F)(F)(F)(F)F)cc2)CC1 [Compound T6]	≤ 100	≤ 100		
C=CC(=O)N1CC=C(c2cccnc2Nc2ccc(C(F)(F)F)cc2)C1 [Compound T4]	≤ 100	≤ 100		
C=CC(=O)N1CCN(c2cccnc2Nc2ccc(C(F)(F)F)cc2)CC1 [Compound T36]	100 to 1000	100 to 1000		
C=CC(=O)N1CC=C(c2cccnc2Nc2ccc(C(F)(F)F)cc2)CC1 [Compound T2]	≤ 100	≤ 100		
C=CC(=O)N1CCC(c2cc(C(F)(F)F)cnc2Oc2ccc(C(F)(F)F)cc2)CC1 [Compound T39]	100 to 1000	100 to 1000		
C=C(C)C(=O)N1CCC(c2cccnc2Nc2ccc(C(F)(F)F)cc2)CC1 [Compound T48]	1000 to 5000	1000 to 5000		
C=CC(=O)N1CCC(c2c(Cl)ccnc2Nc2ccc(C(F)(F)F)cc2)CC1 [Compound T29]	≤ 100	≤ 100		
